Measured values from patent US8114393B2, “Methods and compositions for phosphate binding” (Wisconsin Alumni Research Foundation, priority 2005, dated 2012).

Legend:
[1] = system: Intestinal Phosphate Absorption; experiment: Intestinal phosphate absorption: oral 33P dose after gavage of phosphate binder; format: in vivo, rats; conditions: for amount of 33P remaining in the digestive tract compared with water (FIG. 3A) / serum 33P levels compared with water (FIG. 3B): 10 mg calcium, 14.4 mg Renagel or novel binder (Table 1); for binding / absorption of an oral 33P dose (summary): administered orally in rats; for 33P remaining in the intestine compared to Renagel, dose response study (FIG. 4A) / serum 33P levels compared to Renagel, dose response study (FIG. 4B): two highest levels of DAB-8 and DAB-16, highest level of DAB-64, vs 14.4 mg Renagel
Procedure: (§1) Animals. Male Sprague-Dawley rats (Harlan Sprague-Dawley, Madison, Wis.) weighing approximately 120 grams were used in all experiments.
In experiments to measure ^33P absorption, the rats were fed a laboratory chow diet (Lab Diet 5012, Richmond, Ind.) containing 1% calcium and 0.7% phosphorus ad libitum for less than one week prior to the experiment.
Intestinal Phosphate Absorption. Following an overnight fast, rats were administered 0.5 mL water or an oral phosphate binder dissolved in water via gastric gavage. A second dose of 0.5 mL containing 3 μCi ^33P (as H3PO4, specific activity 155.8 Ci/mg, New England Nuclear/Perkin Elmer, Boston, Mass.) in a 10, 50, or 100 mM KH2PO4 buffer at pH 7.4 was immediately administered via gastric gavage. Rats were killed by CO2 asphyxiation immediately or 60 minutes after the oral dose. The rats killed immediately (labeled “0 min control” in figures) were used to determine if the oral ^33P dose was properly administered and completely recovered.
Blood was collected via heart puncture and centrifuged at 1500×g for 15 minutes at 22° C. to yield serum. A suture was tied to the cranial end of the esophagus to contain liquid inside the stomach. The entire digestive tract was then removed and allowed to dissolve for several days in concentrated HNO3 (approximately 1 mL HNO3 per gram tissue). The exact volume of the dissolved digestive tract was determined by diluting the dissolved tissues to equal volumes with water.
The amount of radioactivity in total body serum and total volume of dissolved tissue was determined following liquid scintillation counting of 50 μL aliquots in triplicate (Tri-Carb Liquid Scintillation Analyzer, Perkin-Elmer/Packard, Boston, Mass.). Total body serum was estimated to be 40 mL serum/kg body weight. (Hawk T et al., 1999, Formulary for laboratory animals, Ames, Iowa: Iowa State University Press.)
(§2) Statistical analysis. Data are presented as means±standard error of the means (SEM). Treatment groups were compared by a fully factorial analysis of variance (ANOVA) and means were subjected to Tukey, Scheffe, and Fisher's Least-Significant-Difference (LSD) tests (Systat 5.2.1, Systat Software, Inc., Point Richmond, Calif.). Differences were considered significant if at least two of the tests detected significance with a p-value <0.05, unless specified otherwise.
Materials and Methods. The relevant materials and methods were the same as set forth above except that instead of using “0.5 mL of water or 39.5 mg calcium acetate, 14.4 mg RENAGEL, or up to 132.8 mg of test dendrimer,” the following was used “0.5 mL of water, 14.4 mg RENAGEL or 10 mg DAB-8 as the hydroacetate or hydrocitrate form dissolved in water.”

[2] = system: Intestinal Phosphate Absorption; experiment: Fecal calcium and phosphorus measurements, binder in purified diet; format: in vivo, rats; conditions: for mg P per gram feces: 48 h fecal collection, mean ± SEM, control 3.79 ± 0.18; for fecal phosphorus levels versus control diet or diet with 0.15% Renagel / increase in fecal phosphorus versus the increase from excess calcium or an equivalent amount of Renagel: 0.15% of diet; for fecal phosphorus levels versus control diet or diet with 0.15% Renagel: DAB-8 and DAB-16 significant by Fisher's LSD test only; for increase in fecal phosphorus versus the increase from excess calcium or an equivalent amount of Renagel: Fisher's LSD test only
Description: as §1
In experiments to measure fecal calcium and phosphorus levels, rats were fed purified diet described previously for 9 days. (Suda T et al., Biological activity of 25-hydroxyergocalciferol in rats, J Nutr 1970, 100:1049-1052). This diet was mixed with egg white protein (Harlan Teklad, Madison, Wis.) and contained 0.20% inorganic phosphorus and 0.47% calcium. The purified diet was supplemented with 100 μL soybean oil (Wesson oil, ConAgra Foods, Irvine, Calif.) containing 500 μg α-tocopherol, 60 μg menadione, 40 μg β-carotene, and 1.875 μg cholecalciferol three times each week.
Fecal calcium and phosphorus measurements. Rats were fed the purified diet described above or the same diet with 1.2% calcium, 0.15% Renagel®, or 0.15% DAB-4, DAB-8, or DAB-16 for 7 days. Rats were then moved to metabolic cages and fecal matter was collected for 48 hours. Fecal samples were frozen, lyophilized, and heated to over 600° C. overnight in a muffle oven. Remaining ash was then dissolved overnight in 25 mL 6 N HCl. The calcium concentration of the acid was determined by flame atomic absorption spectroscopy (Model 3110, Perkin Elmer, Norwalk, Conn.) using an aliquot of the dissolved ash diluted 1:40 with 1 g/L LaCl3. The phosphorus concentration of an aliquot of the dissolved ash was determined by a colorimetric assay described previously. (Itaya K et al., A new micromethod for the colorimetric determination of inorganic phosphate, Clin Chim Acta 1966, 14:361-366).
as §2

rats = experiment: Oral tolerability of DAB dendrimers fed in the diet; format: in vivo; conditions: as hydrochlorides; for tolerability in rats: 0.15% of the diet; for tolerability in rats, observation: 0.3% or 0.6% of the diet, after 5 days (data not shown)
Description: Unfortunately, little is known regarding the toxicity of DAB dendrimers when administered orally. Previous research has shown DAB dendrimers to be cytotoxic in vitro (Duncan R et al., Dendrimer biocompatibility and toxicity, Adv Drug Deliv Rev 2005, 57:2215-2237) and when administered intravenously, the DAB dendrimers are lethal. (Schatzlein A G et al., Preferential liver gene expression with polypropylenimine dendrimers, J Control Release 2005, 101:247-258). In our experiments, however, the DAB dendrimers were well tolerated by rats when administered orally.

[3] = 14.4 mg Renagel or 10 mg DAB-8 as acetate or citrate, 10 mM KH2PO4, 60 min
[4] = 10 mM KH2PO4, 60 min, listed as DAB-16-Cl

Molecule | amount of 33P remaining in the digestive tract compared with water (FIG. 3A) ([1]; 10 mM KH2PO4, 60 min) | serum 33P levels compared with water (FIG. 3B) ([1]; 10 mM KH2PO4, 60 min) | mg P per gram feces ([2]; 0.15% of diet for 7 days) | fecal phosphorus levels versus control diet or diet with 0.15% Renagel [2] | tolerability in rats (rats) | tolerability in rats, observation (rats) | 33P remaining in the intestine compared to Renagel, dose response study (FIG. 4A) [1] | serum 33P levels compared to Renagel, dose response study (FIG. 4B) [1] | also measured
Cl.Cl.Cl.Cl.Cl.Cl.NCCCN(CCCN)CCCCN(CCCN)CCCN [DAB-4, polypropylenimine tetraamine Dendrimer perhydrochloride] | significantly increased | significantly reduced | 4.30 ± 0.13 mg P per gram feces | increased, though not significantly | tolerated | only softened stool was observed |  |  | 
Cl.Cl.N[C@@H]1CO[C@@H]2[C@H]1OC[C@H]2N [FC, 1,4:3,6-Dianhydro-2,5-diamino-2,5-dideoxy-D-iditol dihydrochloride] | did not affect | slight, but significant, decrease |  |  |  |  |  |  | binding / absorption of an oral 33P dose (summary) [1]: does not appear to bind
Cl.Cl.Cl.Cl.NC[C@@H](N)[C@@H](N)CN [KB-54, erythro-1,2,3,4-tetraminobutane tetrahydrochloride] | significantly increased | significantly reduced |  |  |  |  |  |  | binding / absorption of an oral 33P dose (summary) [1]: reduced the absorption
CC(=O)[O-].CC(=O)[O-].[Ca+2] [calcium, Calcium acetate, reference compound] | significantly increased | significantly reduced |  |  |  |  |  |  | 33P remaining in the intestine after 60 minutes compared with water (FIG. 2A) ([1]; 20 mg calcium (as calcium acetate) or 14.4 mg Renagel by gavage, 33P in 10, 50 or 100 mM KH2PO4, fasted rats): significantly more; 33P bound in the intestine compared with 14.4 mg Renagel (FIG. 2A) ([1]; 20 mg calcium, difference significant in 10 or 100 mM phosphate, 60 min): bound more ^33P in the intestine; serum 33P levels compared with water (FIG. 2B) ([1]; calcium (printed 10 mg) or 14.4 mg Renagel, 10, 50 or 100 mM KH2PO4, 60 min): significant decrease; mg P per gram feces ([2]; 1.20% Ca diet for 7 days): 4.39 ± 0.23 mg P per gram feces; fecal phosphorus versus control diet ([2]; 1.20% calcium diet): increased, though not significantly
DAB-Am-8, Polypropylenimine octaamine Dendrimer citrate (Generation 2.0) [DAB-8 as citrate] |  |  |  |  |  |  |  |  | 33P in the serum compared with vehicle pretreatment (FIG. 26) [1, 3]: significantly less; 33P retained in the gut compared with vehicle pretreatment (FIG. 25) [1, 3]: significantly more
Polypropylenimine hexadecaamine Dendrimer perhydrochloride [DAB-16] | significantly increased | significantly reduced | 4.78 ± 0.30 mg P per gram feces | significantly increased | tolerated | only softened stool was observed | significantly increased | significantly reduced | 33P retained in the digestive tract versus DAB-4 at an equivalent amount of free amino groups (FIG. 5A) ([1]; 10 mM KH2PO4, 60 min): bound significantly more; 33P retained in the digestive tract versus DAB-8 at equimolar amounts (FIG. 5A) ([1]; 10 mM KH2PO4, 60 min): retained significantly more; amount of 33P remaining in the digestive tract compared to a comparable amount of Renagel (FIG. 3A) ([1]; 10 mM KH2PO4, 60 min): bound significantly more; serum 33P levels compared to a comparable amount of Renagel (FIG. 3B) ([1]; 10 mM KH2PO4, 60 min): significantly reduced; 33P retained in the digestive tract versus DAB-8 at equimolar amounts (FIG. 5A) [1, 4]: significantly more; amount of 33P remaining in the digestive tract compared to a comparable amount of Renagel (FIG. 3A) [1, 4]: significantly increased; serum 33P levels compared with water, mechanism study (FIG. 5B) ([1]; 13.9 mg, the only level of binder with significant effect): significantly reduce; increase in fecal phosphorus versus the increase from excess calcium or an equivalent amount of Renagel [2]: significantly higher
Polypropylenimine tetrahexacontaamine Dendrimer perhydrochloride [DAB-64] | significantly increased | significantly reduced |  |  |  |  | significantly increased | significantly reduced | 
polypropylenimine octaamine Dendrimer perhydrochloride [DAB-8] | significantly increased | significantly reduced | 4.71 ± 0.53 mg P per gram feces | significantly increased | tolerated | only softened stool was observed | significantly increased | significantly reduced | amount of 33P remaining in the digestive tract compared to a comparable amount of Renagel (FIG. 3A) ([1]; 10 mM KH2PO4, 60 min): bound significantly more; serum 33P levels compared to a comparable amount of Renagel (FIG. 3B) ([1]; 10 mM KH2PO4, 60 min): significantly reduced; amount of 33P remaining in the digestive tract compared to a comparable amount of Renagel (FIG. 3A) ([1]; 10 mM KH2PO4, 60 min, listed as DAB-8-Cl): significantly increased; increase in fecal phosphorus versus the increase from excess calcium or an equivalent amount of Renagel [2]: significantly higher
